These results are taken from PMC9412374, “Design, Synthesis, and Development of pyrazolo[1,5-a]pyrimidine Derivatives as a Novel Series of Selective PI3Kδ Inhibitors: Part I—Indole Derivatives” (Pharmaceuticals, 2022).

Series [1] is described as follows: Kinetic solubility, shake-flask protocol. In kind it is physicochemical. Conditions: aqueous buffer, kinetic from dmso stock, pH 7.4 phosphate-buffered saline, 25 °C, 500 µM compound. As for the experimental part: Kinetic solubility was determined by the shake-flask protocol. Appropriate compounds (500 µM) were incubated in an aqueous buffer (0.1 M phosphate-buffered saline pH 7.4) at 25 °C with stirring at 500 rpm. The samples were taken at the start time and after 24 h of incubation, filtered through 0.22 µm filters, and diluted with two volumes of acetonitrile. UHPLC-UV/Vis determined sample concentrations. A calibration curve was prepared to quality the compound’s contents in the test solution.

Series [2] in a line: Metabolic phase I stability in mouse microsomes. Format: in vitro ADME. The conditions noted are these: NADPH, 37 °C; for microsomal CLint at 1 μM: heading: MLM Cl; for half-life at 1 μM: read-out: MLM t1/2. The protocol: (§1) Assessment of metabolic phase I stability in mouse (CD-1™) and human microsomes (Thermo-Fisher Scientific, Waltham, MA, USA) was performed on 96-well non-binding plates (Greiner, Frickenhausen, Germany) at 1 μM concentration for verapamil (positive control) and donepezil (negative control) and tested compounds. Unless otherwise stated, all chemicals and materials were ordered from Merck Life Science (Palo Alto, CA, USA). Each biological replicate was prepared in triplicates. Briefly, mixtures were incubated in 100 mM potassium phosphate buffer with microsomes (0.5 mg/mL) and NADPH (1–1.2 mM) on a plate shaker (500 rpm) in the dark at 37 °C. A 4× solution of NADPH, a cofactor for metabolic enzymes, was prepared directly prior to the experiment by reducing NADP with G6P dehydrogenase (13.2 mM MgCl2, 13.2 mM G6P, 5.2 mM NADP, 3.2 U/mL G6P dehydrogenase, 20 min at 30 °C, 500 rpm). The negative control contained buffer instead of NADPH solution. Samples were collected at 0, 10, 20, and 40 min or 0 and 40 min for the negative and double negative controls. The reaction was stopped by protein precipitation in 2 volumes of ice-cold MeOH with 200 nM imipramine (an internal standard for LC-MS analysis). Then, the extract was mixed (1 min, 1000 rpm), filtered through a 0.22 μm filter on a 96-well plate vacuum manifold, and subjected to LC-MS analysis.

The target of series [3] is T1, PI3Kα (Homo sapiens, UniProt P42336).
T1 construct: purchased Carna Biosciences
Nature of the series: In vitro kinase inhibition assay for PI3K (ADP-Glo), PI3Kα. The conditions noted are these: for IC50: IC50 PI3K α, recombinant kinase, ADP-Glo, mean of two independent experiments; for Fold Selectivity α/δ: ratio of IC50 PI3Kα to IC50 PI3Kδ. In kind it is biochemical. As for the experimental part:
(§2) Tested compounds were dissolved in 100% DMSO, and obtained solutions were serially diluted in 1× reaction buffer. The recombinant kinase solution was diluted in a reaction mixture comprising 5× reaction buffer, respective compound solution (1 mM sodium diacetate 4,5-bisphosphate phosphatidylinositol (PIP2) solution in 40 mM Tris buffer), and water. In a 96-wells plate, 5 μL of compound solutions and 15 μL of the kinase solution in the reaction mixture were added per well. To initiate the interaction of chemical compounds to be tested with the enzyme, the plate was incubated for 10 min at a suitable temperature in a plate thermostat with orbital shaking at 600 rpm. Negative control wells contained all the above reagents except tested compound and kinase, and positive control wells contained all the above reagents except tested compounds. The enzymatic reaction was initiated by adding 5 μL of 150 μM ATP solution. Subsequently, the plate was incubated for 1 h at 25 or 30 °C (depending on the PI3K isoform tested) in a plate thermostat with orbital shaking of the plate contents at 600 rpm. The reaction conditions are combined in the table below (Table 6).
(§3) Detection of ADP formed in the enzymatic reaction was then performed using ADP-Glo Kinase Assay™ (Promega, Madison, WI, USA). To the wells of a 96-well plate, 25 μL of ADP-Glo Reagent™ was added, and the plate was incubated for 40 min at 25 °C in a plate thermostat with orbital shaking at 600 rpm. Then 50 μL of Kinase Detection Reagent were added to each well, and the plate was incubated for 40 min at 25 °C in a plate thermostat with orbital shaking at 600 rpm. Once the incubation was complete, the luminescence intensity was measured using a Victor Light luminometer (Perkin Elmer, Inc., Waltham, MA, USA). IC50 values were determined based on luminescence intensity measured in wells containing tested compounds at different concentrations in relation to control wells. These values were calculated with Graph Pad 5.03 software by fitting the curve using non-linear regression. Each compound was tested at least in quadruplicates (4 wells) on two 96-well plates utilizing at least 4 wells for each control. Averaged results of inhibition activity respective to specific isoforms of PI3K kinases for tested compounds are presented as IC50 values in Table 1, Table 2, Table 3 and Table 4.

Series [4] deals with T2, PI3Kδ (Homo sapiens, UniProt O00329).
T2 construct: purchased Merck Millipore
Description: In vitro kinase inhibition assay for PI3K (ADP-Glo), PI3Kδ. The conditions noted are these: recombinant kinase, mean of two independent experiments. Format: biochemical. The protocol: as §2, with “The enzymatic reaction was initiated by adding 5 μL of 150 μM ATP solution.” left out
as §3, with “These values were calculated with Graph Pad 5.03 software by fitting the curve using non-linear regression.” left out, “control.” for “control. Averaged results of inhibition activity respective to specific isoforms of PI3K kinases for tested compounds are presented as IC50 values in Table 1, Table 2, Table 3 and Table 4.”

The test system of series [5] is CD19 cells. Description: B cells proliferation by flow cytometry (CFSE). In kind it is cell-based. Conditions: B-cell, 96 h, CD19 cells from PBMC, activated by αIgM and ODN2006, four days. As for the experimental part:
CD19 cells were isolated from PBMC using magnetic beads (Stem Cell, Cambridge, MA, USA) and then labeled with 2 µM CFSE (Invitrogen, Waltham, MA, USA).
After four days, cells were stained with LIVE/DEAD™ kit (Invitrogen, Waltham, MA, USA). Samples were acquired using Attune NxT Flow Cytometer (Invitrogen, Waltham, MA, USA) and analyzed using FlowJo software. Each biological assay was performed with cells isolated from a different donor. The presented results constitute the average value of the percentage of proliferating cells from 3 independent experiments.

Series [6] deals with T3, PI3Kγ (Homo sapiens, UniProt P48736).
T3 construct: purchased Merck Millipore
Description: In vitro kinase inhibition assay for PI3K (ADP-Glo), PI3Kγ. Format: biochemical. Conditions: for Fold Selectivity γ/δ: ratio of IC50 PI3Kγ to IC50 PI3Kδ. The protocol:
as §2, with “The enzymatic reaction was initiated by adding 5 μL of 150 μM ATP solution.” left out
as §3, with “These values were calculated with Graph Pad 5.03 software by fitting the curve using non-linear regression.” left out, “control.” for “control. Averaged results of inhibition activity respective to specific isoforms of PI3K kinases for tested compounds are presented as IC50 values in Table 1, Table 2, Table 3 and Table 4.”

A short description of series [7]: Metabolic phase I stability in human microsomes. Conditions: human microsomes 0.5 mg/mL, NADPH, 37 °C; for half-life at 1 μM: read-out: HLM t1/2. In kind it is in vitro ADME. As for the experimental part:
as §1

Series [8] concerns the target T4, PI3Kβ (Homo sapiens, UniProt P42338).
T4 construct: purchased Merck Millipore
Description: In vitro kinase inhibition assay for PI3K (ADP-Glo), PI3Kβ. Conditions: for Fold Selectivity β/δ: ratio of IC50 PI3Kβ to IC50 PI3Kδ. In kind it is biochemical. As for the experimental part:
as §2, with “The enzymatic reaction was initiated by adding 5 μL of 150 μM ATP solution.” left out
as §3, with “These values were calculated with Graph Pad 5.03 software by fitting the curve using non-linear regression.” left out, “control.” for “control. Averaged results of inhibition activity respective to specific isoforms of PI3K kinases for tested compounds are presented as IC50 values in Table 1, Table 2, Table 3 and Table 4.”

The mark [9] stands for this setting: CD-1, liver microsomes, mouse microsomes 0.5 mg/mL.
The mark [10] stands for this setting: recombinant kinase, ADP-Glo, mean of two independent experiments, read-out: IC50 PI3K γ.
[11] abbreviates: recombinant kinase, ADP-Glo, mean of two independent experiments, read-out: IC50 PI3K β.

Values after ≈ are worked out from the molar mass of the structure shown. Like-named read-outs stand apart in the source and are kept apart here.

T4 sequence (P42338 whole entry): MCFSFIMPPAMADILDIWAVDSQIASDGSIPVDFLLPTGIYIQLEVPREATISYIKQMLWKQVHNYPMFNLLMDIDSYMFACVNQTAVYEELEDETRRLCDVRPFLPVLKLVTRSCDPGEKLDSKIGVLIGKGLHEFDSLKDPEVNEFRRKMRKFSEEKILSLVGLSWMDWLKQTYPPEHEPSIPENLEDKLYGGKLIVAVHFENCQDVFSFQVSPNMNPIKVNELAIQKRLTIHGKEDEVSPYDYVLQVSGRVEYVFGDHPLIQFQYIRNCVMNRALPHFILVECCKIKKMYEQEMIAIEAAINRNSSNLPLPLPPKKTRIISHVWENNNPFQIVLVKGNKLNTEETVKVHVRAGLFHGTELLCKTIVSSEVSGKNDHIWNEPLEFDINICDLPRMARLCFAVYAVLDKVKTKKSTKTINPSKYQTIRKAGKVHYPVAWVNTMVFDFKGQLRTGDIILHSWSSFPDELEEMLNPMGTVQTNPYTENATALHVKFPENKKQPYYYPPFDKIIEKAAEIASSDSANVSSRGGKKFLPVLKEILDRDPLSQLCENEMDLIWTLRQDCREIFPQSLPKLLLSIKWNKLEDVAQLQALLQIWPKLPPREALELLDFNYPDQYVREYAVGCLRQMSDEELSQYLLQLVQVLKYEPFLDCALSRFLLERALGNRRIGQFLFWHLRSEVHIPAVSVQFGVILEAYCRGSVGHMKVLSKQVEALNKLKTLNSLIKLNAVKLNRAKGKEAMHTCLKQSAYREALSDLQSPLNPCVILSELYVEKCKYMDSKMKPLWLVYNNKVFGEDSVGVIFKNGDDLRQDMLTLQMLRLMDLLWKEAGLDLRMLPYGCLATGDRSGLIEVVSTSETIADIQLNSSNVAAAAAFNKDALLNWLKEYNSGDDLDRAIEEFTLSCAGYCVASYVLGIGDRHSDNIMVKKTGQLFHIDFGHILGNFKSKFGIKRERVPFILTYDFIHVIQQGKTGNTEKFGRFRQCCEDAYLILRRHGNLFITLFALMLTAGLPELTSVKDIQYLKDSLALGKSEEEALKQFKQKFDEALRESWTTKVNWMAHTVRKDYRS
T4 sequence (P27986 whole entry, further chain): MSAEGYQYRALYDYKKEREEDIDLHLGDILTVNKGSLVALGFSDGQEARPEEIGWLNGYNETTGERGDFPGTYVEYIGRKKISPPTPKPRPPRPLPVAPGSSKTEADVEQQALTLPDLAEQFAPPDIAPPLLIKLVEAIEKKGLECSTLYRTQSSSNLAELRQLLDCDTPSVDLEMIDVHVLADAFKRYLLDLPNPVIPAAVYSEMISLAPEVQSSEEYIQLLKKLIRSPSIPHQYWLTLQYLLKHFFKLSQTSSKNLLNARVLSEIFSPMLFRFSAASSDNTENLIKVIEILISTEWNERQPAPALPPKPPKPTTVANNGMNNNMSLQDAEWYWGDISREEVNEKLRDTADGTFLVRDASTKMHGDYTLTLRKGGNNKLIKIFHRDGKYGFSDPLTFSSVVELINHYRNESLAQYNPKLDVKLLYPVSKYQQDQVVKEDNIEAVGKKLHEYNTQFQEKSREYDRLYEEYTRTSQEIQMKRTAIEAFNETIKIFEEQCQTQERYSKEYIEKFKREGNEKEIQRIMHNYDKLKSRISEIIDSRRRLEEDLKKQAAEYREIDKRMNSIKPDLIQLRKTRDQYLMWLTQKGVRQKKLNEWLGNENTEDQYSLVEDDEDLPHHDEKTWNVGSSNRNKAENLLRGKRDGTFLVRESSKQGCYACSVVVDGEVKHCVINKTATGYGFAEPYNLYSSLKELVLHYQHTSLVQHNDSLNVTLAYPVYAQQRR
T3 sequence (P48736 whole entry): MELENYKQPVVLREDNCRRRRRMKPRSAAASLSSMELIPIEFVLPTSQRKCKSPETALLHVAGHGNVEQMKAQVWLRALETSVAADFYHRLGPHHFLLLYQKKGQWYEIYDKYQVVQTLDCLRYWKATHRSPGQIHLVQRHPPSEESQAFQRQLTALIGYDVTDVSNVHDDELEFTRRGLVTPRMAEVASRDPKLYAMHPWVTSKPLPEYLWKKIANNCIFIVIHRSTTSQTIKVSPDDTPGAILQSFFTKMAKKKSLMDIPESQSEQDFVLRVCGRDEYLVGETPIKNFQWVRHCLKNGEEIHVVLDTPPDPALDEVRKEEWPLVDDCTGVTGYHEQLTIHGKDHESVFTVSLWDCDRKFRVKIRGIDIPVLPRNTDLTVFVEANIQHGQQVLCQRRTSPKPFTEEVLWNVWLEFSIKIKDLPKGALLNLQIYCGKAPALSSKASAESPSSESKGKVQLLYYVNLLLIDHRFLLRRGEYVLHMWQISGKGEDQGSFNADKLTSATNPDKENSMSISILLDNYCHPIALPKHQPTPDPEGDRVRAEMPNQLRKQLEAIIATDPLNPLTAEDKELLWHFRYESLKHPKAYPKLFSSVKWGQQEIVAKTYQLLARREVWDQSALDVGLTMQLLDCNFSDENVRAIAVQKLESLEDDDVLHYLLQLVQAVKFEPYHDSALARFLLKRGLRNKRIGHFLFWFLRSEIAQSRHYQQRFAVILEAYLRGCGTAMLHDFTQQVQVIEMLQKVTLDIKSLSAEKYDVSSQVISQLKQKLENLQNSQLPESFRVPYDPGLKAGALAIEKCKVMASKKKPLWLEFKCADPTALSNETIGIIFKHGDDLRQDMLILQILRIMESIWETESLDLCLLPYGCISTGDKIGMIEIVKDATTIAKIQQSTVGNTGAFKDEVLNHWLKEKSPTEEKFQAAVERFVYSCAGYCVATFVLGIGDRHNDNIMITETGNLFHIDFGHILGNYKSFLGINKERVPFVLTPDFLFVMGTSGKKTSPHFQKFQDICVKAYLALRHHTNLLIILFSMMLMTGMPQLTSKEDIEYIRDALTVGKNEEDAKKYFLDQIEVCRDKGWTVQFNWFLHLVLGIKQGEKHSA
T1 sequence (P42336 whole entry): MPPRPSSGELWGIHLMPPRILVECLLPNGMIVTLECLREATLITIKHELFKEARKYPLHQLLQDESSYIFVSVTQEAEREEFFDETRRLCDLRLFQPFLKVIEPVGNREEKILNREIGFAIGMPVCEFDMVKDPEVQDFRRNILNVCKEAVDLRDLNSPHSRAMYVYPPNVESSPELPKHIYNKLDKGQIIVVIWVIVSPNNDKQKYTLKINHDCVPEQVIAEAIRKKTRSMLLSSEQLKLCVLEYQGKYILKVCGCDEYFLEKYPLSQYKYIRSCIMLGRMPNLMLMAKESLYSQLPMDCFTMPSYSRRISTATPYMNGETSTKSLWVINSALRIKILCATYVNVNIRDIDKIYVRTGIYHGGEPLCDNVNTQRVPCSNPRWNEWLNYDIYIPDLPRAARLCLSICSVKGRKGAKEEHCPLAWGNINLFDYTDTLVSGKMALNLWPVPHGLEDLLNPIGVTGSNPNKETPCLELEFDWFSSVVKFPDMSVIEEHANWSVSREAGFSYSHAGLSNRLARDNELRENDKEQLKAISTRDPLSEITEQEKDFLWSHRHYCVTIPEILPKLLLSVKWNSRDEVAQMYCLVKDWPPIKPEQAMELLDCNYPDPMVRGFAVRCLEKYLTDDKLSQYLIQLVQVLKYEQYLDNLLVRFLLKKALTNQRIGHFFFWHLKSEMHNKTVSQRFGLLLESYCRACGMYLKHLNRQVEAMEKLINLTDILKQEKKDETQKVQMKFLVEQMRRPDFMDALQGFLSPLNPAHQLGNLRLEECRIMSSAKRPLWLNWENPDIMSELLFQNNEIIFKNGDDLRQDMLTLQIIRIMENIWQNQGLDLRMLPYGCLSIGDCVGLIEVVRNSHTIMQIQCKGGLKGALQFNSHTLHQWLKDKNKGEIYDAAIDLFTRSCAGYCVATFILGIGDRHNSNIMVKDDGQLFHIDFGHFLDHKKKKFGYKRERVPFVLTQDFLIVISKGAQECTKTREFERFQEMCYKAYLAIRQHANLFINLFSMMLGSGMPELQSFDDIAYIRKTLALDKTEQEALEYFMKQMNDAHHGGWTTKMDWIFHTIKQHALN
T1 sequence (P27986 whole entry partner): as the sequence (P27986 whole entry, further chain) above
T2 sequence (P27986 whole entry): as the sequence (P27986 whole entry, further chain) above
T2 sequence (O00329 whole entry): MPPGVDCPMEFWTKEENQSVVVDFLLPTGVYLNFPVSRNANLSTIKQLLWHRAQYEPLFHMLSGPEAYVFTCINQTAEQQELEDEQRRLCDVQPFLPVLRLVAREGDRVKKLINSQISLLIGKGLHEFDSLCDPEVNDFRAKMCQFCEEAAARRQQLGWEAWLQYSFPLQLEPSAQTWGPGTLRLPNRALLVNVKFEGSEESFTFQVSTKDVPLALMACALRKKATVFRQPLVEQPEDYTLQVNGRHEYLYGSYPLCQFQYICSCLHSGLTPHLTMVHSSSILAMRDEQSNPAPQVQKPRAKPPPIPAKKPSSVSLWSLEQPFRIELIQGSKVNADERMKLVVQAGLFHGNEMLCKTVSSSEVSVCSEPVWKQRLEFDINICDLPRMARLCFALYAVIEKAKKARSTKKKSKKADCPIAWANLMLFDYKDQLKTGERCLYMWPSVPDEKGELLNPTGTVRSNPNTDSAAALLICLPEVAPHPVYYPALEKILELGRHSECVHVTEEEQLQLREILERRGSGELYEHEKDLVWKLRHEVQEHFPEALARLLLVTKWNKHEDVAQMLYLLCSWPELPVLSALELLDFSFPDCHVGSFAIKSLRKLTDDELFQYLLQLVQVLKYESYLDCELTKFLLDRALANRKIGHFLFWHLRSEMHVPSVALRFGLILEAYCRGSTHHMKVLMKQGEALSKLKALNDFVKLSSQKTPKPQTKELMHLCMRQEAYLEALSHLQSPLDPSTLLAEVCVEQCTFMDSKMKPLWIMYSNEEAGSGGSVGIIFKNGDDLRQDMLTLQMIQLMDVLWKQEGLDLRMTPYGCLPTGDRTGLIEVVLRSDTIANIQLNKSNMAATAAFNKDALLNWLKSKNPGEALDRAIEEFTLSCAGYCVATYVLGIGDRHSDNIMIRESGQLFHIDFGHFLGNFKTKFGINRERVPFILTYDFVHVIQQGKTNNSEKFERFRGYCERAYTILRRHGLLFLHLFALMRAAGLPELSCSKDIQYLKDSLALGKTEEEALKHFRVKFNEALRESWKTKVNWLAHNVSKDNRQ

For `CC(C)(C)N1CCN(Cc2cc3nc(-c4cncc5[nH]ccc45)cc(N4CCOCC4)n3n2)CC1` [Compound 54, 2-((4-tert-butylpiperazin-1-yl)methyl)-5-(1H-pyrrolo [2,3-c]pyridin-4-yl)-7-(morpholin-4-yl)pyrazolo[1,5-a]pyrimidine], in series [1], the solubility (kinetic) at 24 h is more than 500 µM. The compound further yielded a microsomal CLint at 1 μM in series [2] (CD-1, microsomes, mouse microsomes 0.5 mg/mL) of 7 µL/min/mg. For the same compound, the half-life at 1 μM in series [2] (CD-1, mouse microsomes 0.5 mg/mL) was determined as 3.3 h; in series [7], 6.17 h. Moreover, the IC50 in series [3] was 2.67 µM; in series [4] (IC50 PI3K δ), 0.0028 µM; in series [5] it was 0.019 µM; in series [6], 34.4 µM; in series [8] it was 21.6 µM. The “Fold Selectivity α/δ” value in series [3] came out at 954. Further, the “Fold Selectivity γ/δ” value in series [6] is recorded as 12,286. Besides, the “Fold Selectivity β/δ” value in series [8] came to 7714.

On to `CC(C)(C)N1CCN(Cc2cc3nc(-c4cccc5[nH]ccc45)cc(N4CCOCC4)n3n2)CC1` [Compound 37, 2-((4-tert-butylpiperazin-1-yl)methyl)-5-(1H-indol-4-yl)-7-(morpholin-4-yl)pyrazolo[1,5-a]pyrimidine], for which, in series [1], the kinetic solubility at 24 h came out at 444 µM (≈ 210 µg/mL). Moreover, the microsomal CLint at 1 μM turned out to be 13.7 µL/min/mg in series [2] (setting [9]) and 22.8 µL/min/mg in series [7] (liver microsomes, heading: HLM Cl). For the same compound, the results for the half-life at 1 μM in series [2] (setting [9]) and in series [7] (liver microsomes) were 2.1 h and 1.27 h, respectively. For the same compound, the IC50 in series [3] was 12.5 µM; in series [4] (read-out: IC50 PI3K δ), 0.0066 µM; in series [5], 0.02 µM; in series [6] (setting [10]), more than 60 µM; in series [8] (setting [11]) it was 5.47 µM. Further, in series [3], the “Fold Selectivity α/δ” value was 1889. In addition, in series [6], the “Fold Selectivity γ/δ” value is given as more than 9091. Also, the “Fold Selectivity β/δ” value in series [8] was 829.

Take `CN(C)C1CCN(Cc2cc3nc(-c4cccc5[nH]ccc45)cc(N4CCOCC4)n3n2)CC1` [Compound 24, 2-((4-(dimethylamino)piperidin-1-yl)methyl)-5-(1H-indol-4-yl)-7-(morpholin-4-yl)pyrazolo[1,5-a]pyrimidine]: the IC50 in series [3] was 6.38 µM; in series [4] (read-out: IC50 PI3K δ) it was 0.037 µM; in series [6] (setting [10]), 49.3 µM; in series [8] (setting [11]), 14.4 µM. The “Fold Selectivity α/δ” value in series [3] came to 172. For the same compound, the “Fold Selectivity γ/δ” value in series [6] worked out at 1332. The “Fold Selectivity β/δ” value in series [8] stood at 389.
